According to US6855730B2, “3-methylidenyl-2-indolinone modulators of protein kinase” (Sugen, Inc., priority 1998, dated 2005):

Key:
flkGST = biological target: T1, flkGST (Homo sapiens, UniProt P35968); experiment: bio flkGST assay; format: biochemical
T1 construct: GST

[1] = biological target: Myc-GyrB-FGFR fusion protein (Homo sapiens, UniProt P11362); experiment: Biochemical FGFR assay (ELISA); settings: read-out: bio fgfR1 IC50
EGFR = EGFR (Homo sapiens, UniProt P00533); experiment: Biochemical EGFR assay (ELISA, A431 cell lysate); set-up: A431 cell lysate (Screening Lab, SUGEN, Inc.); host or cells: A431; settings: read-out: bio EGFr IC50
Description: This assay measures the in vitro kinase activity of EGFR using ELISA.
Materials and Reagents • 1. […] SUMO1 monoclonal anti-EGFR antibody (Biochemistry Lab, SUGEN, Inc.). • 3. PBS (Dulbecco's Phosphate-Buffered Saline, Gibco Catalog No. 450-1300EB). • 4. TBST Buffer
• 6. A431 cell lysate (Screening Lab, SUGEN, Inc.) • 7. TBS Buffer:
Prepare a 1.0 mM solution in dH2O. This reagent should be made up immediately prior to use and kept on ice. • 10. MnCl2.
Prepare a 1.0 M stock solution in dH2O. • 11. ATP/MnCl2 phosphorylation mix
This reagent should be prepared immediately before use and kept on ice. • 12. NUNC 96-well V bottom polypropylene plates (Applied Scientific Cat. No. AS-72092). • 13. Ethylenediaminetetraacetic acid (EDTA)
Prepare 200 mM working solution in dH2O. Adjust to pH 8.0 with 10 N NaOH. • 14. Rabbit polyclonal anti-phosphotyrosine serum (Biochemistry Lab, SUGEN, Inc.) • 15. Goat anti-rabbit IgG peroxidase conjugate (Biosource Cat. No. ALI0404) • 16. ABTS (2,2′-azino-bis(3-ethylbenzthiazoline-6-sulfonic acid), Sigma Cat. No. A-1888).
Mix first two ingredients in about 900 ml dH2O, adjust pH to 4.0 with phosphoric acid. Add ABTS, cover, let sit about 0.5 hr., filter. The solution should be kept in the dark at 4° C. until ready to use. • 17. Hydrogen peroxide 30% solution (Fisher Cat. No. H325) • 18. ABTS/H2O2 • Mix 15 ml ABTS solution and 2.0 μl H2O2. Prepare 5 minutes before use. • 19. 0.2 M HCl
Procedure • 1. Coat Corning 96 well ELISA plates with 0.5 μg SUMO1 in 100 μl PBS per well, store overnight at 4° C. • 2. Remove unbound SUMO1 from wells by inverting plate to remove liquid., Wash 1× with dH2O. Pat the plate on a paper towel to remove excess liquid. • 3. Add 150 μl of Blocking Buffer to each well. Incubate for 30 min. at room temperature with shaking. • 4. Wash plate 3× with deionized water, then once with TBST. Pat plate on a paper towel to remove excess liquid and bubbles. • 5. Dilute lysate in PBS (7 μg lysate/100 μl PBS). • 6. Add 100 μl of diluted lysate to each well. Shake at room temperature for 60 min. • 7. Wash plates as described in 4, above. • 8. Add 120 μl TBS to ELISA plate containing captured EGFR. • 9. Dilute test compound 1:10 in TBS in 96-well polypropylene plates (i.e. 10 μl compound+90 μl TBS). • 10. Add 13.5 μl diluted test compound to ELISA plate. […] Incubate for 30 minutes while shaking at room temperature. • 12. […] After 5 minutes, stop reaction by adding 16.5 μl of 200 mM EDTA (pH 8.0) to each well, shaking continuously. After the EDTA has been added, shake for 1 min. • 14. Wash 4× with deionized water, twice with TBST. • 15. Add 100 μl anti-phosphotyrosine (1:3000 dilution in TBST) per well. Incubate 30-45 min. at room temperature, with shaking. • 16. Wash as described in 4, above. • 17. Add 100 μl Biosource Goat anti-rabbit IgG peroxidase conjugate (1:2000 dilution in TBST) to each well. Incubate 30 min. at room temperature, with shaking. • 18. Wash as described in 4, above. • 19. Add 100 μl of ABTS/H2O2 solution to each well. • 20. Incubate 5 to 10 minutes with shaking. Remove any bubbles. • 21. If necessary stop reaction with the addition of 100 μl 1 0.2 M HCl per well. • 22. Read assay on Dynatech MR7000 ELISA reader. Test Filter: 410 nM Reference Filter: 630 Nm.

PDGFR-β = biological target: T2, PDGFR-β (Homo sapiens, UniProt P09619); experiment: Biochemical PDGFR assay (ELISA, PDGFR-β expressing NIH 3T3 cell lysate); settings: read-out: bio PDGF IC50
T2 construct: host or cells: NIH 3T3
How it was run: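 PDGFR-β from NIH 3T3 cell lysate captured on anti-PDGFR (28D4C10)-coated plates; compound preincubated 30 min, then 20 μM ATP kinase reaction 30 min at room temperature, stopped with EDTA. Phosphotyrosine detected by anti-phosphotyrosine antibody, peroxidase conjugate and ABTS/H2O2, read at 410 nm.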

Myc-GyrB-FGFR fusion protein, sequence (P11362 478-767 limits assumed): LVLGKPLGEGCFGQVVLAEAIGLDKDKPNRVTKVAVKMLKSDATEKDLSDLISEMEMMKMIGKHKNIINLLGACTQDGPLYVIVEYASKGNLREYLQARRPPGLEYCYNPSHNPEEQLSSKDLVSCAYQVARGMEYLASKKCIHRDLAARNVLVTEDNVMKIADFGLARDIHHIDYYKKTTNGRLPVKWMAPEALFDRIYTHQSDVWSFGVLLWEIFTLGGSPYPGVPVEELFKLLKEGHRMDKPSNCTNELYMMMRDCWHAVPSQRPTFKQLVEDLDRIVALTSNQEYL
T1 sequence (P35968 786-1356 limits assumed): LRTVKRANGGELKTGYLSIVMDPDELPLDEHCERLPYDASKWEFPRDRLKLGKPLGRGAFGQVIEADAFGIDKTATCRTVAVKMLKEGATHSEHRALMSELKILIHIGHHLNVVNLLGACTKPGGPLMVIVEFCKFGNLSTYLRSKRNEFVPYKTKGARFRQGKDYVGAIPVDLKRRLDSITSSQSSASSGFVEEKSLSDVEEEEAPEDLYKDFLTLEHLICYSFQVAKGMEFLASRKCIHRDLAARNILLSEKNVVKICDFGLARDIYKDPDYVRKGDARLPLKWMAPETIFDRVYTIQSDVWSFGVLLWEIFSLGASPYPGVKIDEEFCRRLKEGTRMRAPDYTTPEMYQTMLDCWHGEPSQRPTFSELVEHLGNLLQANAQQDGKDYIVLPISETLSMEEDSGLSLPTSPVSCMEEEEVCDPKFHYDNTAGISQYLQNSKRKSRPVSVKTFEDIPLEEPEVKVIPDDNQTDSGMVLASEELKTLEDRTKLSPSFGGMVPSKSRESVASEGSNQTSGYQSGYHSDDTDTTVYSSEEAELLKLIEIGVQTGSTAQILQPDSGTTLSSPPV
EGFR, sequence (P00533 25-1210): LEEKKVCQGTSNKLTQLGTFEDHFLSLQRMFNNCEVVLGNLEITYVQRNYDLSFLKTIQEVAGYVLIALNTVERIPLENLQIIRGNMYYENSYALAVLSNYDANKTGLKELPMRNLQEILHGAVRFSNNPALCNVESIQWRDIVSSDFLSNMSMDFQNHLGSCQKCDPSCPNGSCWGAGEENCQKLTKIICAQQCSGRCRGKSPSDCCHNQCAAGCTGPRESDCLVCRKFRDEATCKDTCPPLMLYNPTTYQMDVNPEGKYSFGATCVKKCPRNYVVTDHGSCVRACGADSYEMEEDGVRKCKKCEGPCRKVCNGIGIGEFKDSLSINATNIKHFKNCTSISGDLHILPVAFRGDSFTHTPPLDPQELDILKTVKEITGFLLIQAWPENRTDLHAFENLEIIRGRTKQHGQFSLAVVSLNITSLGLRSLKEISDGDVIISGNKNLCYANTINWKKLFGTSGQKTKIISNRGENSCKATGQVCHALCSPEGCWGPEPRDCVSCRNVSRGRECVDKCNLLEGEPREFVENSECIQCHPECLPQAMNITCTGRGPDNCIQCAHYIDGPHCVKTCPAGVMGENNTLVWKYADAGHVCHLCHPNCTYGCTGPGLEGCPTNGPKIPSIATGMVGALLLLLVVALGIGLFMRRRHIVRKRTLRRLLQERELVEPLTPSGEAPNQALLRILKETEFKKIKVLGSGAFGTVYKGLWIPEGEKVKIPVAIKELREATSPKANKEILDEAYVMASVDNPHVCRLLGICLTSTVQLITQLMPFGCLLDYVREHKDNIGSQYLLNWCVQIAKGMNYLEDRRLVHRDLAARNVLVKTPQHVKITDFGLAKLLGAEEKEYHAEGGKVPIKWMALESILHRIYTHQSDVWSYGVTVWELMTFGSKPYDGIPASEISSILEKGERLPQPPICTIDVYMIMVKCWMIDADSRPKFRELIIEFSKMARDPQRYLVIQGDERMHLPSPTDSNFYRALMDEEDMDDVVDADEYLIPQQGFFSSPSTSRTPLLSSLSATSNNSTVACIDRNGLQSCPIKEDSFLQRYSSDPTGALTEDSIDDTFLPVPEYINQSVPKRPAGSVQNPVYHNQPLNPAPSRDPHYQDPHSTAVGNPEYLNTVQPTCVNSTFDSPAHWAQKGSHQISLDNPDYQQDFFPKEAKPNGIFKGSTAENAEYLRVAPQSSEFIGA
T2 sequence (P09619 33-1106): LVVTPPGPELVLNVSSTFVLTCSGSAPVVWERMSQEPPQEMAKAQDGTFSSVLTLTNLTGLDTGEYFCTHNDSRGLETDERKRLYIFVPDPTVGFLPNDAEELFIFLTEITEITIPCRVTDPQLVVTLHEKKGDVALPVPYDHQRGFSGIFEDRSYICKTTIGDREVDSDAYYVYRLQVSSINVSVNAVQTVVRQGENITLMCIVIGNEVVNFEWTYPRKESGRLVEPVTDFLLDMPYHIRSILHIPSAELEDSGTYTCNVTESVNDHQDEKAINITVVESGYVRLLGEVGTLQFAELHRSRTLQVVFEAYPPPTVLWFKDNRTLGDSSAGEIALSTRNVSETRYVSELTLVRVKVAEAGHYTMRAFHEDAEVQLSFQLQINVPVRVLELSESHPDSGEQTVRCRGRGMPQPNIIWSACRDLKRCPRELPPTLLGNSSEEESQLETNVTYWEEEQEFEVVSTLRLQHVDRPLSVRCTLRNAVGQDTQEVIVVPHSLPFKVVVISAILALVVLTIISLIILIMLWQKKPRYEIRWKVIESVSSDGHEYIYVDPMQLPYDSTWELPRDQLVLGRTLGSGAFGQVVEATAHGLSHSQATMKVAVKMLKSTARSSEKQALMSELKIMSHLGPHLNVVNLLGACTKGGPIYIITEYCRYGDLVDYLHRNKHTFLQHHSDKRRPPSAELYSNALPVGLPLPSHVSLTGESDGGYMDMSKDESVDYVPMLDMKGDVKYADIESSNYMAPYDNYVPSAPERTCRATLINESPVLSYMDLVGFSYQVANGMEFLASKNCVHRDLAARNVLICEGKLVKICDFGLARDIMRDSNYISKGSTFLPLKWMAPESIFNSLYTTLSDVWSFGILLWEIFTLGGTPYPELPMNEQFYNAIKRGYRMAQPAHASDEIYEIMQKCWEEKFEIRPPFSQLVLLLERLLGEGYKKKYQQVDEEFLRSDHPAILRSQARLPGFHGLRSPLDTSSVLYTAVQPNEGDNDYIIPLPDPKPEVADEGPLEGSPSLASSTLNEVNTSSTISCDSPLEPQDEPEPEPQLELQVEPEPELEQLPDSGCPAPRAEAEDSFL

| SMILES | IC50 (flkGST) [µM] | IC50 [1] [µM] | IC50 (EGFR) [µM] | IC50 (PDGFR-β) [µM] |
| --- | --- | --- | --- | --- |
| CCOC(=O)c1c(C)[nH]c(/C=C2\C(=O)Nc3ccc(Cl)cc32)c1CCC(=O)O [Example 112, 4-(2-Carboxyethyl)-5-(5-chloro-2-oxo-1,2-dihydroindol-3-ylidenemethyl)-2-methyl-1H-pyrrole-3-carboxylic acid ethyl ester] | 2.36 | > 20 | > 100 | 0.02 |
| CCOC(=O)c1[nH]c(/C=C2\C(=O)Nc3cccc(C)c32)c(CCC(=O)O)c1C [Example 139, 4-(2-Carboxyethyl)-3-methyl-5-(4-methyl-2-oxo-1,2-dihydroindol-3-ylidenemethyl)-1H-pyrrole-2-carboxylic acid ethyl ester] | 7.56 | 12.6 | > 100 | > 100 |
| CCOC(=O)c1[nH]c(/C=C2\C(=O)Nc3ccc(OC)cc32)c(CCC(=O)O)c1C [Example 140, 4-(2-Carboxyethyl)-5-(5-methoxy-2-oxo-1,2-dihydroindol-3-ylidenemethyl)-3-methyl-1H-pyrrole-2-carboxylic acid ethyl ester] | 6.65 | 12.8 | > 100 | > 100 |
| CCOC(=O)c1[nH]c(/C=C2\C(=O)Nc3cc(OC)ccc32)c(CCC(=O)O)c1C [Example 141, 4-(2-Carboxyethyl)-5-(6-methoxy-2-oxo-1,2-dihydroindol-3-ylidenemethyl)-3-methyl-1H-pyrrole-2-carboxylic acid ethyl ester] | 11.5 | 8.38 | > 100 | 85.1 |
| CCOC(=O)c1[nH]c(/C=C2\C(=O)Nc3cc(Br)ccc32)c(CCC(=O)O)c1C [Example 142, 5-(6-Bromo-2-oxo-1,2-dihydroindol-3-ylidenemethyl)-4-(2-carboxy-ethyl)-3-methyl-1H-pyrrole-2-carboxylic acid ethyl ester] | 21.1 | 5.9 | > 100 | > 100 |
| CCOC(=O)c1[nH]c(/C=C2\C(=O)Nc3ccc(Br)cc32)c(CCC(=O)O)c1C [Example 143, 5-(5-Bromo-2-oxo-1,2-dihydroindol-3-ylidenemethyl)-4-(2-carboxy-ethyl)-3-methyl-1H-pyrrole-2-carboxylic acid ethyl ester] | 26.9 | 16.6 | > 100 | > 100 |
| CCOC(=O)c1[nH]c(/C=C2\C(=O)Nc3cc(-c4ccccc4)ccc32)c(CCC(=O)O)c1C [Example 144, 4-(2-Carboxyethyl)-3-methyl-5-(2-oxo-6-phenyl-1,2-dihydroindol-3-ylidenemethyl)-1H-pyrrole-2-carboxylic acid ethyl ester] | 9.03 | 2.77 | > 100 | > 100 |
| CCOC(=O)c1[nH]c(C=C2C(=O)Nc3ccc(S(N)(=O)=O)cc32)c(CCC(=O)O)c1C [Example 145, 4-(2-Carboxyethyl)-3-methyl-5-(2-oxo-5-sulfamoyl-1,2-dihydro-indol-3-ylidenemethyl)-1H-pyrrole-2-carboxylic acid ethyl ester] | 11.8 | 15.6 | > 100 | > 100 |
| CCOC(=O)c1[nH]c(/C=C2\C(=O)Nc3ccc(S(=O)(=O)NC)cc32)c(CCC(=O)O)c1C [Example 146] | 15.6 | > 20 | > 100 | > 100 |
| CCOC(=O)c1[nH]c(/C=C2\C(=O)Nc3ccc(S(=O)(=O)N(C)C)cc32)c(CCC(=O)O)c1C [Example 147, 4-(2-Carboxyethyl)-5-(5-dimethylsulfamoyl-2-oxo-1,2-dihydro-indol-3-ylidenemethyl)-3-methyl-1H-pyrrole-2-carboxylic acid ethyl ester] | 15.3 | > 20 | > 100 | > 100 |
